According to PubChem BioAssay AID248 (DTP/NCI, 2004):
Values joined by “and” are separate entries in the source; they are usually repeats but may differ in a detail not shown here. Equal values may be shown once. Toxic doses and inconclusive results are not listed.

System: L1210 leukemia ip in BDF1 mice, survival T/C
Assay: NCI In Vivo Anticancer Drug Screen. Data for tumor model L1210 Leukemia (intraperitoneal) in B6D2F1 (BDF1) mice
Details: endpoint: mean survival time, higher = longer survival
How it was run: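 Ratio derived from survival: compound-dosed mice over vehicle-dosed mice, all bearing a transplantable tumor.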

[1] = dose: 50.0 mg/kg/injection, schedule: Q04DX003 (ip), vehicle: saline
[2] = dose: 100.0 mg/kg/injection, schedule: Q04DX003 (ip), vehicle: saline
[3] = dose: 100.0 mg/kg/injection, schedule: Q01DX001 (ip), vehicle: saline
[4] = dose: 200.0 mg/kg/injection, schedule: Q01DX001 (ip), vehicle: saline
[5] = dose: 100.0 mg/kg/injection, schedule: Q01DX001 (ip), vehicle: carboxymethylcellulose (CMC)
[6] = dose: 200.0 mg/kg/injection, schedule: Q01DX001 (ip), vehicle: carboxymethylcellulose (CMC)
[7] = dose: 400.0 mg/kg/injection, schedule: Q01DX001 (ip), vehicle: carboxymethylcellulose (CMC)

In the case of `OCCN1CCN(CC/C=C2/c3ccccc3Sc3ccc(C(F)(F)F)cc32)CC1`, the T/C (dose: 0.78 mg/kg/injection, schedule: Q03HX024 (ip), vehicle: saline) is reported as 94 % of control, the T/C (dose: 1.56 mg/kg/injection, schedule: Q03HX024 (ip), vehicle: saline) is reported as 103 % of control and the T/C (dose: 2.0 mg/kg/injection, schedule: Q01DX009 (ip), vehicle: saline) is reported as 89 % of control. For the same molecule, the T/C (dose: 2.5 mg/kg/injection, schedule: Q01DX009 (ip), vehicle: saline) was 114 % of control, the T/C (dose: 3.12 mg/kg/injection, schedule: Q03HX024 (ip), vehicle: saline) was 105 % of control and the T/C (dose: 4.0 mg/kg/injection, schedule: Q01DX009 (ip), vehicle: saline) was 98 % of control. The T/C (dose: 5.0 mg/kg/injection, schedule: Q01DX009 (ip), vehicle: saline) was 103 % of control, the T/C (dose: 6.25 mg/kg/injection, schedule: Q04DX003 (ip), vehicle: saline) was 101 % of control and the T/C (dose: 8.0 mg/kg/injection, schedule: Q01DX009 (ip), vehicle: saline) was 93 % of control. The T/C (dose: 10.0 mg/kg/injection, schedule: Q01DX009 (ip), vehicle: saline) was 116 % of control, the T/C (dose: 10.0 mg/kg/injection, schedule: Q04DX003 (ip), vehicle: saline) was 115 % of control and the T/C (dose: 12.5 mg/kg/injection, schedule: Q04DX003 (ip), vehicle: saline) was 110 % of control. For the same molecule, the T/C (dose: 18.75 mg/kg/injection, schedule: Q01DX001 (ip), vehicle: saline) was 107 % of control, the T/C (dose: 20.0 mg/kg/injection, schedule: Q01DX009 (ip), vehicle: saline) was 95 % of control and the T/C (dose: 37.5 mg/kg/injection, schedule: Q01DX001 (ip), vehicle: saline) was 117 % of control. For the same molecule, the T/C [1] was 121 % of control.

With `CCCCCCCCCCCC(=O)CCC` the T/C (dose: 100.0 mg/kg/injection, schedule: Q01DX009 (ip), vehicle: other) was 87 % of control, the T/C (dose: 100.0 mg/kg/injection, schedule: Q04DX003 (ip), vehicle: other) was 103 % of control and the T/C (dose: 200.0 mg/kg/injection, schedule: Q01DX009 (ip), vehicle: other) was 95 % of control. For the same molecule, the T/C (dose: 200.0 mg/kg/injection, schedule: Q04DX003 (ip), vehicle: other) was 105 % of control, the T/C (dose: 400.0 mg/kg/injection, schedule: Q01DX009 (ip), vehicle: other) was 89 % of control and the T/C (dose: 400.0 mg/kg/injection, schedule: Q04DX003 (ip), vehicle: other) was 103 % of control.

For `N#CSCSC#N`, the T/C (dose: 3.12 mg/kg/injection, schedule: Q04DX003 (ip), vehicle: saline with Tween-80) was 98 % of control, the T/C (dose: 6.25 mg/kg/injection, schedule: Q04DX003 (ip), vehicle: saline with Tween-80) was 96 % of control and the T/C (dose: 12.5 mg/kg/injection, schedule: Q04DX003 (ip), vehicle: saline with Tween-80) was 90 % of control.

`COc1ccc(C2=CC=C(c3ccccc3)C2)cc1N` was tested, and the T/C (dose: 100.0 mg/kg/injection, schedule: Q01DX001 (ip), vehicle: Klucel (hydroxypropylcellulose) (HPC)) was 90 % of control, the T/C (dose: 200.0 mg/kg/injection, schedule: Q01DX001 (ip), vehicle: Klucel (hydroxypropylcellulose) (HPC)) was 95 % of control and the T/C (dose: 400.0 mg/kg/injection, schedule: Q01DX001 (ip), vehicle: Klucel (hydroxypropylcellulose) (HPC)) was 90 % of control.

With `Cc1cccc[n+]1CC(=O)c1ccccc1` the T/C [2] was 94 % of control.

`COc1ccc(CCNC(=O)c2ccccc2N=Cc2cc(Cl)cc(Cl)c2O)cc1OC` was tested, and the T/C (dose: 75.0 mg/kg/injection, schedule: Q01DX009 (ip), vehicle: Klucel (hydroxypropylcellulose) (HPC)) was 94 % of control, the T/C (dose: 150.0 mg/kg/injection, schedule: Q01DX009 (ip), vehicle: Klucel (hydroxypropylcellulose) (HPC)) was 96 % of control and the T/C (dose: 300.0 mg/kg/injection, schedule: Q01DX009 (ip), vehicle: Klucel (hydroxypropylcellulose) (HPC)) was 96 % of control.

With `CC(=O)Oc1ccc(OC(C)=O)c([N+](=O)[O-])c1` the T/C [3] was 103 % of control, the T/C [4] was 102 % of control and the T/C (dose: 400.0 mg/kg/injection, schedule: Q01DX001 (ip), vehicle: saline) was 103 % of control.

With `O=[N+]([O-])C1CCC2CCC3CCCC1C32` (stereo not drawn) the T/C (dose: 25.0 mg/kg/injection, schedule: Q04DX002 (ip), vehicle: saline with Tween-80) was 97 % of control, the T/C (dose: 50.0 mg/kg/injection, schedule: Q04DX002 (ip), vehicle: saline with Tween-80) was 91 % of control and the T/C (dose: 100.0 mg/kg/injection, schedule: Q04DX002 (ip), vehicle: saline with Tween-80) was 101 % of control and 102 % of control. For the same molecule, the T/C (dose: 400.0 mg/kg/injection, schedule: Q04DX002 (ip), vehicle: saline with Tween-80) was 93 % of control.

With `c1ccc2c(C3=NCCN3)ccc(C3=NCCN3)c2c1` the T/C (dose: 15.0 mg/kg/injection, schedule: Q01DX Z (ip), vehicle: saline) was 100 % of control and the T/C (dose: 30.0 mg/kg/injection, schedule: Q01DX Z (ip), vehicle: saline) was 101 % of control.

In the case of `Cc1cccc(Cl)c1NC(=O)CN(C)C`, the T/C [3] is reported as 104 % of control and the T/C [4] is reported as 98 % of control.

In the case of `CCN(Cc1ccccc1)C(=S)Nc1ccccc1`, the T/C (dose: 100.0 mg/kg/injection, schedule: Q04DX002 (ip), vehicle: Klucel (hydroxypropylcellulose) (HPC)) is reported as 96 % of control, the T/C (dose: 200.0 mg/kg/injection, schedule: Q04DX002 (ip), vehicle: Klucel (hydroxypropylcellulose) (HPC)) is reported as 108 % of control and the T/C (dose: 400.0 mg/kg/injection, schedule: Q04DX002 (ip), vehicle: Klucel (hydroxypropylcellulose) (HPC)) is reported as 101 % of control.

With `CC(=O)Nc1ccc(OC(=O)Nc2cccc(Cl)c2Cl)cc1` the T/C (dose: 100.0 mg/kg/injection, schedule: Q01DX009 (ip), vehicle: Klucel (hydroxypropylcellulose) (HPC)) was 102 % of control, the T/C (dose: 200.0 mg/kg/injection, schedule: Q01DX009 (ip), vehicle: Klucel (hydroxypropylcellulose) (HPC)) was 101 % of control and the T/C (dose: 400.0 mg/kg/injection, schedule: Q01DX009 (ip), vehicle: Klucel (hydroxypropylcellulose) (HPC)) was 97 % of control.

For `O=[N+]([O-])c1cccc(/C=N/Nc2nnc(N/N=C/c3cccc([N+](=O)[O-])c3)c3ccccc23)c1`, the T/C (dose: 50.0 mg/kg/injection, schedule: Q01DX001 (ip), vehicle: carboxymethylcellulose (CMC)) was 98 % of control, the T/C [5] was 98 % of control and the T/C [6] was 87 % of control. The T/C [7] was 93 % of control.

With `CC(C)C1c2ccccc2C(=O)C1C(N)=O` (stereo not drawn) the T/C [5] was 90 % of control, the T/C [6] was 100 % of control and the T/C [7] was 93 % of control.

In the case of `O=[As](O)(O[As](=O)(O)c1ccccc1)c1ccccc1`, the T/C (dose: 5.0 mg/kg/injection, schedule: Q01DX001 (ip), vehicle: saline) is reported as 103 % of control, the T/C (dose: 10.0 mg/kg/injection, schedule: Q01DX001 (ip), vehicle: saline) is reported as 103 % of control and the T/C (dose: 20.0 mg/kg/injection, schedule: Q01DX001 (ip), vehicle: saline) is reported as 103 % of control. The T/C (dose: 40.0 mg/kg/injection, schedule: Q01DX001 (ip), vehicle: saline) was 101 % of control.

For `CC(=O)c1ccccc1OCC(O)CN1CCN(c2cccc(C(F)(F)F)c2)CC1` (stereo not drawn), the T/C (dose: 100.0 mg/kg/injection, schedule: Q04DX003 (ip), vehicle: saline with Tween-80) was 106 % of control, the T/C (dose: 200.0 mg/kg/injection, schedule: Q04DX003 (ip), vehicle: saline with Tween-80) was 108 % of control and the T/C (dose: 400.0 mg/kg/injection, schedule: Q04DX003 (ip), vehicle: saline with Tween-80) was 108 % of control.

In the case of `O=C(Nc1ccc(Br)cc1)Nc1cccc(Cl)c1`, the T/C (dose: 100.0 mg/kg/injection, schedule: Q04DX002 (ip), vehicle: saline) is reported as 103 % of control, the T/C (dose: 200.0 mg/kg/injection, schedule: Q04DX002 (ip), vehicle: saline) is reported as 103 % of control and the T/C (dose: 400.0 mg/kg/injection, schedule: Q04DX002 (ip), vehicle: saline) is reported as 96 % of control.

`CC([NH-])C(C)[NH-].[Cl][Pt+2][Cl]` (stereo not drawn) was tested, and the T/C (dose: 3.1 mg/kg/injection, schedule: Q04DX002 (ip), vehicle: Klucel (hydroxypropylcellulose) (HPC)) was 124 % of control, the T/C (dose: 6.25 mg/kg/injection, schedule: Q04DX002 (ip), vehicle: Klucel (hydroxypropylcellulose) (HPC)) was 153 % of control and the T/C (dose: 25.0 mg/kg/injection, schedule: Q04DX002 (ip), vehicle: Klucel (hydroxypropylcellulose) (HPC)) was 92 % of control.

In the case of `CN(C)C(=O)/N=N/C(=O)N(C)C`, the T/C (dose: 25.0 mg/kg/injection, schedule: Q01DX009 (ip), vehicle: saline) is reported as 97 % of control, the T/C (dose: 25.0 mg/kg/injection, schedule: Q04DX003 (ip), vehicle: saline) is reported as 96 % of control and the T/C (dose: 50.0 mg/kg/injection, schedule: Q01DX009 (ip), vehicle: saline) is reported as 106 % of control. For the same molecule, the T/C [1] was 102 % of control, the T/C (dose: 100.0 mg/kg/injection, schedule: Q01DX009 (ip), vehicle: saline) was 101 % of control and the T/C [2] was 102 % of control.

`O=C(Nc1ccc(Br)cc1)Nc1cc([N+](=O)[O-])ccc1F` was tested, and the T/C (dose: 100.0 mg/kg/injection, schedule: Q04DX003 (ip), vehicle: Klucel (hydroxypropylcellulose) (HPC)) was 89 % of control, the T/C (dose: 200.0 mg/kg/injection, schedule: Q04DX003 (ip), vehicle: Klucel (hydroxypropylcellulose) (HPC)) was 91 % of control and the T/C (dose: 400.0 mg/kg/injection, schedule: Q04DX003 (ip), vehicle: Klucel (hydroxypropylcellulose) (HPC)) was 102 % of control.
